Results as given in US8993606B2, “Oral formulations for treating metal overload” (FerroKin BioSciences, Inc., priority 2011, dated 2015).
Read-outs that look alike come from different tables or passages of the source.

Tests used:
[1] = Aqueous solubility of salts; assay type: physicochemical; conditions: water; read-out: solubility in water
Excerpt: Typically, oral formulations described herein facilitate solubilizing an active ingredient (e.g., a desazadesferrithiocin analog, salt or polymorph) at a desired amount or rate suitable for the treatment of metal overload. As used herein, the term “solubility” is generally intended to be synonymous with the term “aqueous solubility,” and refers to the ability, and the degree of the ability, of a compound to dissolve in water or an aqueous solvent or buffer, as might be found under physiological conditions. Aqueous solubility is, in and of itself, a useful quantitative measure, but it has additional utility as a correlate and predictor, with some limitations which will be clear to those of skill in the art, of oral bioavailability. Typically, a soluble compound is generally desirable, and the more soluble, the better. In liquid formulations, solubility is typically reported in mg/mL, but other measures, such as g/g, may be used. Solubilities typically deemed acceptable may range from 1 mg/mL into the hundreds or thousands of mg/mL.
Solubility may be measured under varying conditions. For example, it may be measured under conditions similar to those found in the body, such as at gastric pH or at physiologic or near-physiologic pH. “Gastric pH” as used herein means about pH 1. […]

[2] = Example 6: multiple-dose study in iron-overloaded human subjects (PK); assay type: in vivo; conditions: for half-life / Tmax / CL renal / Cmax / AUC(0-t) / Vd/F: both sexes, human, plasma; for AUC(0-t): read-out: AUC(0 - 24); for Vd/F: read-out: Vz/F
Excerpt: Example 6 was a multiple-dose, escalating study in iron-overloaded subjects conducted at 5 centers in the US, Australia, and Thailand.
Men and women at least 18 years of age qualified to participate if they were able to voluntarily give consent and had transfusional overload requiring treatment with an iron chelator and were willing to discontinue their chelation for a period of at least 5 days prior to screening and during the study for a total of up to 35 days. […] The mean of each subject's last 3 pre-transfusion hemoglobin levels (prior to screening) was ≧7.5 g/dL and their serum ferritin was >400 ng/mL. Subjects also agreed to use an approved method of contraception during the study.
The study enrolled 20 subjects with the following primary diagnoses requiring chronic transfusions:
• 2 β-thalassemia major • 2 sickle cell anemia Cohort 2 (8 mg/kg): • 1α-thalassemia major (α°/α°) • 2 β-thalassemia major • 1 congenital dyserythropoietic anemia Cohort 3 (16 mg/kg): • 4 β-thalassemia major Cohort 4 (32 mg/kg): • 1 α-thalassemia major)(α°/α° • 2 β-thalassemia/hemoglobin E • 1 sickle cell anemia Cohort 5 (40 mg/kg): • 2 β-thalassemia major • 2 β-thalassemia/hemoglobin E

[3] = system: iron overloaded subjects; assay: Safety: single-dose Phase 1 study in iron-overloaded subjects; assay type: in vivo
Description: The objectives of this study were to assess the safety, tolerability, and pharmacokinetics of ascending single doses of Compound 1. Additionally, dose proportionality and pharmacodynamics of Compound 1 were assessed. Four doses of Compound 1 (6, 10, 16, and 32 mg/kg), in capsule form, were evaluated in this study. Each dose level was tested in a single subject, with appropriate evaluation of safety done prior to escalating the dose. Following screening, the first subject was dosed and then confined to the clinical research unit for 24 hours to conduct safety and pharmacokinetic assessments. The subject was released from the clinic on Day 2 and returned daily for follow-up visits for 5 days post-dosing. This process was followed for each dose level.
Four iron overloaded subjects were enrolled and completed the study. Each subject received a single oral dose of Compound 1. Doses were 6, 10, 16 and 32 mg/kg. […] Three TEAEs were reported for a single subject who received 32 mg/kg of Compound 1. All 3 TEAEs occurred at the site of venipuncture used for blood sampling: bruising at cannula site on the left arm and bruising at 2 venipuncture sites on the left arm and then the right arm.

[4] = 3 mg/kg/day, 7 days oral, N = 4
[5] = 8 mg/kg/day, 7 days oral, N = 4
[6] = 16 mg/kg/day, 7 days oral, N = 4
[7] = 32 mg/kg/day, 7 days oral, N = 2
[8] = 32 mg/kg/day, 7 days oral, N = 4
[9] = 40 mg/kg/day, 7 days oral, N = 4

SMILES: COCCOCCOCCOc1cccc(C2=N[C@@](C)(C(=O)O)CS2)c1O [Compound 1, (S)-4,5-Dihydro-2-[2-hydroxy-3-(3,6,9-trioxadecyloxy)phenyl]-4-methyl-4-thiazolecarboxylate magnesium hydroxide]
- solubility [1]: ≥ 48 mg/mL
- CL/F [2, 4]: 162 ± 85.0 mL/min
- Fe(0-24) [2, 4]: 44.0 ± 16.0 % oral dose
- Ue(0-24) [2, 4]: 66.1 ± 24.0 mg
- λz [2, 4]: 0.0655 ± 0.0606 h⁻¹
- CL/F [2, 5]: 225 ± 142 mL/min
- Fe(0-24) [2, 5]: 47.2 ± 13.8 % oral dose
- Ue(0-24) [2, 5]: 201 ± 68.1 mg
- λz [2, 5]: 0.0424 ± 0.0249 h⁻¹
- CL/F [2, 6]: 206 ± 78.4 mL/min
- Fe(0-24) [2, 6]: 39.2 ± 5.86 % oral dose
- Ue(0-24) [2, 6]: 402 ± 103 mg
- λz [2, 6]: 0.0421 ± 0.0246 h⁻¹
- λz [2, 7]: 0.0381 ± 0.0091^a hr^−1
- CL/F [2, 8]: 172 ± 60.1 mL/min
- Fe(0-24) [2, 8]: 43.1 ± 15.8 % oral dose
- Ue(0-24) [2, 8]: 641 ± 208 mg
- CL/F [2, 9]: 223 ± 23.6 mL/min
- Fe(0-24) [2, 9]: 48.4 ± 14.0 % oral dose
- Ue(0-24) [2, 9]: 905 ± 247 mg
- λz [2, 9]: 0.0544 ± 0.0071 h⁻¹
- time of maximum plasma concentrations, mean ([2]; after 7 days of daily dosing): 1.24 h
- time of maximum plasma concentrations, range ([2]; after 7 days of daily dosing, 3-40 mg/kg/day): 1.0 to 1.49 h
- half-life ([2]; oral, across 5 cohorts, read-out: mean t1/2, range): 12.9 to 21.3 h
- Tmax ([2]; oral, across 5 cohorts, read-out: median values for tmax, range): 1 to 1.49 h
- CL renal [2, 4]: 75.2 ± 46.8 mL/min
- Cmax [2, 4]: 5910 ± 2300 ng/mL
- AUC(0-t) [2, 4]: 19500 ± 11300 ng·h/mL
- half-life ([2]; 3 mg/kg/day, 7 days oral, N = 4, read-out: T1/2 (converted)): 16.2 ± 8.32 h
- Vd/F [2, 4]: 185 ± 84.1 L
- Tmax ([2]; 3 mg/kg/day, 7 days oral, median, read-out: tmax): 1.31 h
- CL renal [2, 5]: 105 ± 62.9 mL/min
- Cmax [2, 5]: 15000 ± 4440 ng/mL
- AUC(0-t) [2, 5]: 44900 ± 30800 ng·h/mL
- half-life ([2]; 8 mg/kg/day, 7 days oral, N = 4, read-out: T1/2 (converted)): 20.9 ± 11.3 h
- Vd/F [2, 5]: 311 ± 137 L
- Tmax ([2]; 8 mg/kg/day, 7 days oral, median, read-out: tmax): 1.18 h
- CL renal [2, 6]: 83.2 ± 3600 mL/min
- Cmax [2, 6]: 38200 ± 3950 ng/mL
- AUC(0-t) [2, 6]: 92300 ± 36600 ng·h/mL
- half-life ([2]; 16 mg/kg/day, 7 days oral, N = 4, read-out: T1/2 (converted)): 21.3 ± 11.8 h
- Vd/F [2, 6]: 339 ± 166 L
- Tmax ([2]; 16 mg/kg/day, 7 days oral, median, read-out: tmax): 1 h
- half-life ([2]; 32 mg/kg/day, 7 days oral, N = 2, read-out: T1/2 (converted)): 18.7 h
- Vd/F [2, 7]: 214 L
- CL renal [2, 8]: 73.6 ± 37.8 mL/min
- Cmax [2, 8]: 68200 ± 27500 ng/mL
- AUC(0-t) [2, 8]: 158000 ± 43500 ng·h/mL
- Tmax ([2]; 32 mg/kg/day, 7 days oral, median, read-out: tmax): 1.49 h
- CL renal [2, 9]: 107 ± 26.2 mL/min
- Cmax [2, 9]: 68600 ± 11000 ng/mL
- AUC(0-t) [2, 9]: 141000 ± 8070 ng·h/mL
- half-life ([2]; 40 mg/kg/day, 7 days oral, N = 4, read-out: T1/2 (converted)): 12.9 ± 1.68 h
- Vd/F [2, 9]: 249 ± 40.4 L
- Tmax ([2]; 40 mg/kg/day, 7 days oral, median, read-out: tmax): 1.26 h
- tolerability ([3]; single oral dose 6, 10, 16, 32 mg/kg): well tolerated
- clinical laboratory assessments, vital sign measurements, ECG parameters ([3]; single oral dose 6-32 mg/kg): no clinically significant changes
- deaths, SAEs, withdrawals due to AEs ([3]; single oral dose 6-32 mg/kg): no deaths, no serious adverse events (SAEs), and no withdrawals due to AEs
- TEAEs reported ([3]; single subject who received 32 mg/kg, all at site of venipuncture): Three
